Experiments:
[1] = Human microsome stability assay; type: in vitro ADME; conditions: 1 μM compound, 0.5 mg/mL microsomal protein, 37° C.; detection limit 6.15 mL/min/kg
Method: Human Microsome Stability Assay The human microsomal stability assay is used for early assessment of metabolic stability of a test compound in human liver microsomes. Human liver microsomes (Cat. […] The reactions were initiated by adding NADPH regenerating system. […] Following precipitation and centrifugation, the amount of compound remaining in the samples were determined by LC-MS/MS. Controls of no NADPH regenerating system at zero and 30 minutes were also prepared and analyzed.

[2] = tested on: primary human hepatocyte (PHH); test: Cytotoxicity in PHH natural infection assay (Cell Counting Kit-8); type: cell-based; conditions: therapeutic index; CC50 by CCK8 in PHH over HBsAg IC50
Method: Detailed procedures regarding primary human hepatocyte (PHH) HBV natural infection assay are described as below. One tube of frozen PHH (10 million cells) was thawed in 37° C. water bath and then transferred to 20 mL of PHH thawing medium (Sigma, InVitroGRO HT Medium, Cat. 503319) with gently mixing. The cells were then centrifuged at […] for 5 min, the supernatant was discarded and the tube was refilled with 25 mL of PHH plating medium (Sigma, InVitroGRO CP Medium, Cat. 503317). The tube was shaken very gently to re-suspend all cells, and then 50 μl of cells were transferred to each well of a 384-well collagen I coated plate with appropriate liquid handling equipment, e.g. Integra VIAFLO384 or Agilent Bravo. The cells were then cultured for 24 hours in a cell incubator. For HBV infection, after PHH attachment on the culture plate, the plating medium was removed and replenished with PHH culture medium containing HBV virus. The PHH culture medium was prepared with Dulbecco's Modified Eagle Medium (DMEM)/F12 (1:1 in volume ratio) containing 10% fetal bovine serum (Gibco, Cat.10099141), 5 ng/mL human epidermal growth factor (Gibco, Cat.PHG031 IL), 20 ng/mL dexamethasone (Sigma, Cat.D4902-100 mg), 250 ng/mL human recombinant insulin (Gibco, Cat.41400045) and 100 U/mL penicillin. HBV virus at 200 genome equivalent (GE) per cell with 4% PEG8000 (Sigma, Cat.P1458) containing culture medium were added to the PHH culture medium for infection. The cells were then cultured for 24 hours in cell incubator. Then the cell culture supernatant was removed. The HBV-infected PHH were cultured with sandwich culture method with PHH culture medium containing 1% DMSO and 0.25 mg/mL matrix gel for 72 hours. The supernatant was then refreshed with PHH culture medium containing different concentrations of testing compounds for two times with 72-hour interval. At the end of treatment, the supernatant was collected for viral markers measurements, including HBsAg, HBeAg, HBV DNA and cytotoxicity. HBsAg and HBeAg were detected using alphalisa method using their specific antibodies. For HBV DNA detection, HBV DNA Quantitative Fluorescence Diagnostic Kit (Sansure Biotech Inc.) was used following the manufacture's protocol. Cytotoxicity was determined using Cell Counting Kit-8 (CCK8, Dojindo Molecular Technologies, Inc.).

HBsAg = test: microbe, parasite or virus in culture; type: cell-based, HBV; conditions: Hepatitis B virus, read-out: HBsAg IC50
HBeAg = test: microbe, parasite or virus in culture; type: cell-based, HBV; conditions: Hepatitis B virus, read-out: HBeAg IC50

SMILES | Clearance of human microsome [1] | TI (CC50/IC50 HBsAg) [2] | IC50 (HBsAg) | IC50 (HBeAg)
CS(=O)(=O)C1(c2ccc(C(=O)NC34CC(c5nc(-c6cccc(Cl)c6)cs5)(C3)C4)o2)CC1 [Example 2, N-[3-[4-(3-chlorophenyl)thiazol-2-yl]-1-bicyclo[1.1.1]pentanyl]-5-(1-methylsulfonylcyclopropyl)furan-2-carboxamide] | ≤6.15 mL/min/kg | 20.66 | 350 nM | 200 nM
CS(=O)(=O)C1(c2ccc(C(=O)NC34CC(c5nc(-c6ccccc6Cl)cs5)(C3)C4)o2)CC1 [Example 3, N-[3-[4-(2-chlorophenyl)thiazol-2-yl]-1-bicyclo[1.1.1]pentanyl]-5-(1-methylsulfonylcyclopropyl)furan-2-carboxamide] | ≤6.15 mL/min/kg | 8.85 | 670 nM | 500 nM
CS(=O)(=O)C1(c2nsc(C(=O)NC34CC(c5nc(-c6cccc(Cl)c6)cs5)(C3)C4)n2)CC1 [Example 4, N-[3-[4-(3-chlorophenyl)thiazol-2-yl]-1-bicyclo[1.1.1]pentanyl]-3-(1-methylsulfonylcyclopropyl)-1,2,4-thiadiazole-5-carboxamide] | ≤6.15 mL/min/kg | 29.65 | 170 nM | 120 nM
CS(=O)(=O)Cc1ncc(C(=O)NC23CC(c4nc(-c5ccc(Cl)cc5)cs4)(C2)C3)o1 [Example 5, N-[3-[4-(4-chlorophenyl)thiazol-2-yl]-1-bicyclo[1.1.1]pentanyl]-2-(methylsulfonylmethyl)oxazole-5-carboxamide] | ≤6.15 mL/min/kg | – | – | –
CS(=O)(=O)C1(c2ccc(C(=O)NC34CC(c5nc(-c6ccc(Cl)nc6)cs5)(C3)C4)o2)CC1 [Example 9, N-[3-[4-(6-chloro-3-pyridyl)thiazol-2-yl]-1-bicyclo[1.1.1]pentanyl]-5-(1-methylsulfonylcyclopropyl)furan-2-carboxamide] | ≤6.15 mL/min/kg | – | – | –
CS(=O)(=O)C1(c2ccc(C(=O)NC34CC(c5nc(C6CC6)cs5)(C3)C4)o2)CC1 [Example 14, N-[3-(4-cyclopropylthiazol-2-yl)-1-bicyclo[1.1.1]pentanyl]-5-(1-methylsulfonylcyclopropyl)furan-2-carboxamide] | ≤6.15 mL/min/kg | – | – | –
CS(=O)(=O)C1(c2ccc(C(=O)NC34CC(c5nc(C(F)(F)F)cs5)(C3)C4)o2)CC1 [Example 16, 5-(1-methylsulfonylcyclopropyl)-N-[3-[4-(trifluoromethyl)thiazol-2-yl]-1-bicyclo[1.1.1]pentanyl]furan-2-carboxamide] | ≤6.15 mL/min/kg | – | – | –
CS(=O)(=O)C1(c2ccc(C(=O)NC34CC(c5nc(-c6ccccc6)ns5)(C3)C4)o2)CC1 [Example 17, 5-(1-methylsulfonylcyclopropyl)-N-[3-(3-phenyl-1,2,4-thiadiazol-5-yl)-1-bicyclo[1.1.1]pentanyl]furan-2-carboxamide] | ≤6.15 mL/min/kg | – | – | –
CS(=O)(=O)C1(c2nnc(C(=O)NC34CC(c5ncc(-c6ccc(Cl)cc6)s5)(C3)C4)o2)CC1 [Example 20, N-[3-[5-(4-chlorophenyl)thiazol-2-yl]-1-bicyclo[1.1.1]pentanyl]-5-(1-methylsulfonylcyclopropyl)-1,3,4-oxadiazole-2-carboxamide] | ≤6.15 mL/min/kg | – | – | –
CS(=O)(=O)C1(c2ccn(C(=O)NC34CC(c5nc(-c6ccc(Cl)cc6)cs5)(C3)C4)n2)CC1 [Example 53, N-[3-[4-(4-chlorophenyl)thiazol-2-yl]-1-bicyclo[1.1.1]pentanyl]-3-(1-methylsulfonylcyclopropyl)pyrazole-1-carboxamide] | – | 21.88 | 170 nM | 110 nM
CS(=O)(=O)C1(c2ccn(C(=O)NC34CC(c5ncc(-c6ccc(Cl)cc6)s5)(C3)C4)n2)CC1 [Example 54, N-[3-[5-(4-chlorophenyl)thiazol-2-yl]-1-bicyclo[1.1.1]pentanyl]-3-(1-methylsulfonylcyclopropyl)pyrazole-1-carboxamide] | – | 10.83 | 60 nM | 50 nM
CS(=O)(=O)C1(c2ncc(C(=O)NC34CC(c5ncc(-c6ccc(Cl)cc6)s5)(C3)C4)o2)CC1 [Example 55, N-[3-[5-(4-chlorophenyl)thiazol-2-yl]-1-bicyclo[1.1.1]pentanyl]-2-(1-methylsulfonylcyclopropyl)oxazole-5-carboxamide] | – | 89.00 | 90 nM | 70 nM

More lines, main results first:

Clearance of human microsome [1] | SMILES | TI (CC50/IC50 HBsAg) [2] | IC50 (HBsAg) | IC50 (HBeAg)
≤6.15 mL/min/kg | CS(=O)(=O)C1(c2ccc(C(=O)NC34CC(c5ncc(-c6ccccc6)s5)(C3)C4)o2)CC1 [Example 22, 5-(1-methylsulfonylcyclopropyl)-N-[3-(5-phenylthiazol-2-yl)-1-bicyclo[1.1.1]pentanyl]furan-2-carboxamide] | – | – | –
≤6.15 mL/min/kg | CS(=O)(=O)C1(c2ccc(C(=O)NC34CC(c5ncc(C6CC6)s5)(C3)C4)o2)CC1 [Example 23, N-[3-(5-cyclopropylthiazol-2-yl)-1-bicyclo[1.1.1]pentanyl]-5-(1-methylsulfonylcyclopropyl)furan-2-carboxamide] | – | – | –
≤6.15 mL/min/kg | CS(=O)(=O)C1(c2ccc(C(=O)NC34CC(c5ncc(Br)s5)(C3)C4)o2)CC1 [Example 24, N-[3-(5-bromothiazol-2-yl)-1-bicyclo[1.1.1]pentanyl]-5-(1-methylsulfonylcyclopropyl)furan-2-carboxamide] | – | – | –
≤6.15 mL/min/kg | CS(=O)(=O)C1(c2ccc(C(=O)NC34CC(c5nsc(-c6ccccc6)n5)(C3)C4)o2)CC1 [Example 25, 5-(1-methylsulfonylcyclopropyl)-N-[3-(5-phenyl-1,2,4-thiadiazol-3-yl)-1-bicyclo[1.1.1]pentanyl]furan-2-carboxamide] | – | – | –
≤6.15 mL/min/kg | CS(=O)(=O)C1(c2ccc(C(=O)NC34CC(c5nnc(-c6ccc(Cl)cc6)o5)(C3)C4)o2)CC1 [Example 28, N-[3-[5-(4-chlorophenyl)-1,3,4-oxadiazol-2-yl]-1-bicyclo[1.1.1]pentanyl]-5-(1-methylsulfonylcyclopropyl)furan-2-carboxamide] | – | – | –
≤6.15 mL/min/kg | CS(=O)(=O)C1(c2ccc(C(=O)NC34CC(c5cn(-c6ccc(Cl)cc6)nn5)(C3)C4)o2)CC1 [Example 29, N-[3-[1-(4-chlorophenyl)triazol-4-yl]-1-bicyclo[1.1.1]pentanyl]-5-(1-methylsulfonylcyclopropyl)furan-2-carboxamide] | – | – | –
11.99 mL/min/kg | NC(=O)c1cc(C(=O)NC23CC(c4nc(-c5ccc(Cl)cc5)no4)(C2)C3)ccn1 [Example 36, N4-[3-[3-(4-chlorophenyl)-1,2,4-oxadiazol-5-yl]-1-bicyclo[1.1.1]pentanyl]pyridine-2,4-dicarboxamide] | – | – | –
≤6.15 mL/min/kg | CS(=O)(=O)C1(c2ccc(C(=O)NC34CC(c5ncc(-c6ccc(Cl)nc6)s5)(C3)C4)o2)CC1 [Example 56, N-[3-[5-(6-chloro-3-pyridyl)thiazol-2-yl]-1-bicyclo[1.1.1]pentanyl]-5-(1-methylsulfonylcyclopropyl)furan-2-carboxamide] | – | – | –
15.39 mL/min/kg | CS(=O)(=O)C1(c2ccc(C(=O)NC34CC(c5ncc(-c6ccc(Cl)cn6)s5)(C3)C4)o2)CC1 [Example 57, N-[3-[5-(5-chloro-2-pyridyl)thiazol-2-yl]-1-bicyclo[11.11]pentanyl]-5-(1-methylsulfonylcyclopropyl)furan-2-carboxamide] | – | – | –
6.89 mL/min/kg | CS(=O)(=O)C1(c2ccc(C(=O)NC34CC(c5ncc(-c6cnc(Cl)cn6)s5)(C3)C4)o2)CC1 [Example 59, N-[3-[5-(5-chloropyrazin-2-yl)thiazol-2-yl]-1-bicyclo[1.1.1]pentanyl]-5-(1-methylsulfonylcyclopropyl)furan-2-carboxamide] | – | – | –

— patent US20230278997A1, “BICYCLO[1.1.1]PENTANE COMPOUNDS FOR THE TREATMENT AND PROPHYLAXIS OF HEPATITIS B VIRUS INFECTION” (Hoffmann-La Roche Inc., priority 2020, published 2023)
